From patent US8143274B2, “1-(2H)-isoquinolone derivative” (Chugai Seiyaku Kabushiki Kaisha, priority 2004, dated 2012)

Assays:
[1] = system: human colon cancer cell line HCT116 transplanted subcutaneously; assay: Measurement of antitumor effect in HCT116 tumor-bearing nude mouse; format: in vivo, BALB/c nude mouse; settings: oral, administered twice (initiation date and 3 days after)
Experimental: [Measurement of Antitumor Effect]
A representative example of the compound group of the present invention was measured in terms of antitumor effect.
Such antitumor effect was examined, using a tumor-bearing mouse produced by transplanting the human colon cancer cell line HCT116 obtained from American Type Culture Collection (Virginia, U.S.A) into the inguinal subcutis of a BALB/c nude mouse purchased from Charles River Laboratories Japan, Inc. The purchased nude mouse was quarantined for 1 week. Thereafter, approximately 5×10^6 HCT116 cells were transplanted subcutaneously. When the size of a tumor thereof became about 200 mm^3, the mouse was subjected to the present experiment.
Each compound was dissolved or suspended in a solution to be administered, and 0.5 ml of the solution was orally administered. Such administration was carried out twice in total, that is, on the initiation date of administration and 3 days after the administration. The antitumor effect was calculated as a tumor growth inhibition by comparing the solution administration group with a control group in terms of tumor growth. Tumor growth inhibition(TGI)=(1−the tumor growth amount of agent-treated group/the tumor growth amount of control group)×100(%)

[2] = system: human colon cancer cell line HCT116; assay: Measurement of cell growth inhibitory activity (Cell Counting Kit-8); format: cell-based; settings: HCT-116, 96 h, HCT116, 2,000 cells/well, cultured 4 days
Experimental: [Measurement of Cell Growth Inhibitory Activity]
Several representative examples of the compound group of the present invention were measured in terms of cell growth inhibitory activity.
Cancer cell growth inhibitory activity was measured using Cell Counting Kit-8 manufactured by Dojindo Laboratories. The human colon cancer cell line HCT116 obtained from American Type Culture Collection (Virginia, U.S.A) was inoculated in a 96-well culture plate at a concentration of 2,000 cells/well. Thereafter, a certain concentration of compound was added thereto, and the obtained mixture was then cultured at 37° C. in 5% CO2 for 4 days. On the 4th day of the culture, a Cell Counting Kit-8 solution was added to the culture product, and absorbance (measurement wavelength: 450 nm; reference wavelength: 615 nm) was measured in accordance with protocols included with the kit. Thereafter, 50% growth inhibitory concentration (IC50) was calculated.

SMILES | IC50 [2] [nM] | TGI (%) on day 7 ([1]; dose 12.5 mg/kg) [%] | TGI (%) on day 7 ([1]; dose 50 mg/kg) [%] | TGI (%) on day 7 ([1]; dose 200 mg/kg) [%]
O=c1[nH]c(-c2ccccc2C(F)(F)F)cc2ccc(N3CCCCC3)cc12 [Compound 10, 7-piperidin-1-yl-3-(2-trifluoromethylphenyl)-2H-isoquinolin-1-one] | 97 |  | 91 | 
O=c1[nH]c(-c2ccccc2C(F)(F)F)cc2ccc(N3CCC(O)CC3)cc12 [Compound 29, 7-(4-hydroxypiperidin-1-yl)-3-(2-trifluoromethylphenyl)-2H-isoquinolin-1-one] | 52 |  |  | 
CCOC(=O)Nc1ccc2cc(-c3ccccc3C(F)(F)F)[nH]c(=O)c2c1 [Compound 61, ethyl[1-oxo-3-(2-trifluoromethylphenyl)-1,2-dihydroisoquinolin-7-yl]carbamate] | 21 |  |  | 73

Now from value to compound, other results behind:

IC50 [2] [nM] | SMILES | TGI (%) on day 7 ([1]; dose 12.5 mg/kg) [%] | TGI (%) on day 7 ([1]; dose 50 mg/kg) [%] | TGI (%) on day 7 ([1]; dose 200 mg/kg) [%]
28 | O=c1[nH]c(-c2ccccc2)cc2ccc(N3CCOCC3)cc12 [Compound 8, 7-morpholin-4-yl-3-phenyl-2H-isoquinolin-1-one] | 96 |  | 
20 | O=c1[nH]c(-c2ccccc2)cc2ccc(N3CCC(CO)CC3)cc12 [Compound 21, 7-(4-hydroxymethylpiperidin-1-yl)-3-phenyl-2H-isoquinolin-1-one] |  |  | 
18 | O=c1[nH]c(-c2ccccc2)cc2ccc(N3CCC(O)C3)cc12 (stereo not drawn) [Compound 36, 7-(3-hydroxypyrrolidin-1-yl)-3-phenyl-2H-isoquinolin-1-one] |  |  | 
